Like-named read-outs stand apart in the source and are kept apart here.
Experiments:
[1] = target: T1, recombinant GST-FXR fusion protein (Homo sapiens, UniProt Q96RI1); assay: FXR activity at the molecular level (AlphaScreen); type: biochemical
T1 sequence (Q96RI1 1-486): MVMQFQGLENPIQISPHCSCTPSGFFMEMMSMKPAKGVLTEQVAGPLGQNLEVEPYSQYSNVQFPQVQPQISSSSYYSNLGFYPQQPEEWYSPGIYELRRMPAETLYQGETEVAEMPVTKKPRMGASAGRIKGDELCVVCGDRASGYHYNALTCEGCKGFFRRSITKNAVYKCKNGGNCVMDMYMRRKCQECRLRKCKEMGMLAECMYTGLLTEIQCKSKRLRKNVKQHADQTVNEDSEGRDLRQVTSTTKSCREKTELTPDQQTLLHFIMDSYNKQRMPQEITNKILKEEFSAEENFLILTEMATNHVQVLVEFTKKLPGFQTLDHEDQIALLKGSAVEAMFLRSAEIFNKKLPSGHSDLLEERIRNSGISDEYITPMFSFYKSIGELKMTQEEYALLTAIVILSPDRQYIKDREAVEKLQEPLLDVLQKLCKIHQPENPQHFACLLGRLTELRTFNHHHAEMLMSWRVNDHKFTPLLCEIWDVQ
Experimental: Test Method for FXR Activity at the Molecular Level
FXR activity was determined using recombinant GST-FXR fusion protein by AlphaScreen detection reagent from PerkinElmer. The reaction in this method was carried out in a 384-well plate, and the total reaction volume was 15 μL. A mixture of protein, agonist, co-regulatory factor, AlphaScreen® acceptor beads and AlphaScreen® donor beads was reacted in a buffer containing Tris-HCl 50 mM (pH7.4), 50 mM NaCl, BSA 0.1%, and 1 mM DTT. The FXR activity was reflected by the fluorescence signal intensity at 570 nm wavelength detected by the Envision fluorescence detector.

FXR receptor = target: T2, FXR receptor (Homo sapiens, UniProt Q96RI1); assay: FXR activity at the cellular level (FXRE luciferase reporter in 293T cells); type: cell-based
T2 construct: expressed in transfected cells; host or cells: 293T cells
T2 sequence (Q96RI1 1-486): T1 sequence (Q96RI1 1-486)
Experimental: The cells were cultured for 24 hours to ensure plasmid expression. Then the FXR receptor agonists to be tested were added and incubated for 18 hours. The fluorescence intensity was detected using a luciferase kit (steady-Glo Luciferase Assay system) to reflect the compound's activation efficiency on the FXR receptor.

[2] = AlphaScreen, GST-FXR, read-out: FXR activity at the molecular level EC50
[3] = 293T cells, luciferase reporter
[4] = 293T cells, luciferase reporter, read-out: FXR activity at the celluar level EC50

O=c1[nH]c(-c2ccc(N3[C@@H]4CC[C@H]3C[C@@H](OCc3c(-c5c(Cl)cccc5Cl)noc3C3CC3)C4)cc2F)no1 [Example 8]
EC50 [1, 2]: < 10 nM
EC50 (FXR receptor): < 0.1 nM
FXR activity at the celluar level Activity relative to OCA (%) 10 μM (FXR receptor; [3]): 102%

O=c1[nH]c(-c2ccc(N3[C@@H]4CC[C@H]3C[C@@H](OCc3c(-c5ccccc5C(F)(F)F)noc3C3CC3)C4)nc2)no1 [Example 5]
EC50 [1, 2]: 10 to 100 nM
FXR activity at the celluar level Activity relative to OCA (%) 10 μM (FXR receptor; [3]): 141%
EC50 (FXR receptor; [4]): 0.1 to 1 nM

O=c1[nH]c(-c2ccc(N3[C@@H]4CC[C@H]3C[C@@H](OCc3c(-c5ccccc5OC(F)F)noc3C3CC3)C4)nc2)no1 [Example 11]
EC50 [1, 2]: 10 to 100 nM
FXR activity at the celluar level Activity relative to OCA (%) 10 μM (FXR receptor; [3]): 108%
EC50 (FXR receptor; [4]): 1 to 10 nM

O=c1[nH]c(-c2ccc(N3[C@@H]4CC[C@H]3C[C@@H](OCc3c(-c5c(Cl)cccc5Cl)noc3C3CC3)C4)nc2)no1 [Example 4]
EC50 [1, 2]: < 10 nM
FXR activity at the celluar level Activity relative to OCA (%) 10 μM (FXR receptor; [3]): 103%
EC50 (FXR receptor; [4]): < 0.1 nM

Cc1ccccc1-c1noc(C2CC2)c1CO[C@H]1C[C@H]2CC[C@@H](C1)N2c1ccc(-c2noc(=O)[nH]2)c(F)c1 [Example 14]
EC50 [1, 2]: 10 to 100 nM
FXR activity at the celluar level Activity relative to OCA (%) 10 μM (FXR receptor; [3]): 106%
EC50 (FXR receptor; [4]): 0.1 to 1 nM

O=c1[nH]c(-c2ccc(N3[C@@H]4CC[C@H]3C[C@@H](OCc3c(-c5c(Cl)cccc5Cl)noc3C3CC3)C4)cc2)no1 [Example 1]
EC50 [1, 2]: < 10 nM
difference of activity on FXR at molecular level, endo-compound vs exo-compound ([1]; endo- versus exo-compound): more than 100 times
FXR activity at the celluar level Activity relative to OCA (%) 10 μM (FXR receptor; [3]): 88%
EC50 (FXR receptor; [4]): 1 to 10 nM

O=c1[nH]c(-c2ccc(N3[C@@H]4CC[C@H]3C[C@@H](OCc3c(-c5c(F)cccc5F)noc3C3CC3)C4)cc2F)no1 [Example 7]
EC50 [1]: 10 to 100 nM
EC50 (FXR receptor): 0.1 to 1 nM
FXR activity at the celluar level Activity relative to OCA (%) 10 μM (FXR receptor; [3]): 117%

O=c1[nH]c(-c2ccc(N3[C@@H]4CC[C@H]3C[C@@H](OCc3c(-c5ccccc5OC(F)F)noc3C3CC3)C4)cc2F)no1 [Example 13]
EC50 [1, 2]: 10 to 100 nM
FXR activity at the celluar level Activity relative to OCA (%) 10 μM (FXR receptor; [3]): 108%
EC50 (FXR receptor; [4]): 0.1 to 1 nM

O=c1[nH]c(-c2ccc(N3[C@@H]4CC[C@H]3C[C@@H](OCc3c(-c5ccccc5OC(F)(F)F)noc3C3CC3)C4)nc2)no1 [Example 6]
EC50 [1, 2]: 10 to 100 nM
FXR activity at the celluar level Activity relative to OCA (%) 10 μM (FXR receptor; [3]): 122%
EC50 (FXR receptor; [4]): 0.1 to 1 nM

O=c1[nH]c(-c2ccc(N3[C@@H]4CC[C@H]3C[C@H](OCc3c(-c5c(Cl)cccc5Cl)noc3C3CC3)C4)cc2)no1 [Example 2]
EC50 [1, 2]: > 1000 nM
FXR activity at the celluar level Activity relative to OCA (%) 10 μM (FXR receptor; [3]): 73%
EC50 (FXR receptor; [4]): > 100 nM

O=c1[nH]c(-c2ccc(N3[C@@H]4CC[C@H]3C[C@@H](OCc3c(-c5ccccc5OC(F)(F)F)noc3C3CC3)C4)cc2F)no1 [Example 10]
EC50 [1, 2]: 10 to 100 nM
FXR activity at the celluar level Activity relative to OCA (%) 10 μM (FXR receptor; [3]): 102%
EC50 (FXR receptor; [4]): 0.1 to 1 nM

Cc1ccccc1-c1noc(C2CC2)c1CO[C@H]1C[C@H]2CC[C@@H](C1)N2c1ccc(-c2noc(=O)[nH]2)cn1 [Example 12]
EC50 [1, 2]: 10 to 100 nM
FXR activity at the celluar level Activity relative to OCA (%) 10 μM (FXR receptor; [3]): 105%
EC50 (FXR receptor; [4]): 1 to 10 nM

O=c1[nH]c(-c2ccc(N3[C@@H]4CC[C@H]3C[C@@H](OCc3c(-c5c(F)cccc5F)noc3C3CC3)C4)nc2)no1 [Example 3]
EC50 [1, 2]: 10 to 100 nM
FXR activity at the celluar level Activity relative to OCA (%) 10 μM (FXR receptor; [3]): 116%
EC50 (FXR receptor; [4]): 0.1 to 1 nM

O=c1[nH]c(-c2ccc(N3[C@@H]4CC[C@H]3C[C@@H](OCc3c(-c5ccccc5C(F)(F)F)noc3C3CC3)C4)cc2F)no1 [Example 9]
EC50 [1, 2]: 10 to 100 nM
FXR activity at the celluar level Activity relative to OCA (%) 10 μM (FXR receptor; [3]): 102%
EC50 (FXR receptor; [4]): 0.1 to 1 nM
